Source: PMC6478789, “A chemical toolbox for the study of bromodomains and epigenetic signaling” (Nature Communications, 2019)
Like-named read-outs stand apart in the source and are kept apart here. Values belong to the compound of their own block, whether it stands above or below them.

Assays:
Assay in all cases: BROMOscan ligand-binding assay
ATAD2B = target: T1, ATAD2B (Homo sapiens, UniProt Q9ULI0)
T1 sequence (Q9ULI0 951-1066 limits assumed): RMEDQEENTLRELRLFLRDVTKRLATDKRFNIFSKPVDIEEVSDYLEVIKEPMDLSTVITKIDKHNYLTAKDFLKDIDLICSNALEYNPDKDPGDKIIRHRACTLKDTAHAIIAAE
Description: (§1) BROMOscan is a binding assay based on the well-known KINOMEscan technology. This assay measures the binding of a DNA-tagged bromodomain to an immobilized BRD ligand. If an inhibitor is present, it will compete with the bromodomain binding to the immobilized ligand, resulting in reduction of a quantitative PCR (qPCR) signal in a dose-dependent manner.

BAZ2A = target: T2, BAZ2A (Homo sapiens, UniProt Q9UIF9)
T2 sequence (Q9UIF9 1793-1897 limits assumed): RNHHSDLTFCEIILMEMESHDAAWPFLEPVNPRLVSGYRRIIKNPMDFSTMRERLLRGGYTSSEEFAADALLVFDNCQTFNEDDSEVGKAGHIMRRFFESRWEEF
Description: as §1

BRPF3 = target: T3, BRPF3 (Homo sapiens, UniProt Q9ULD4)
T3 sequence (Q9ULD4 589-693 limits assumed): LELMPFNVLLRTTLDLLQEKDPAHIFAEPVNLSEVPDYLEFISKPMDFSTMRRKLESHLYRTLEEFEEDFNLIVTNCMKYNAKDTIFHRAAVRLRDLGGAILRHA
Description: as §1

BRD2(1,2) = BRD2(1,2) (Homo sapiens, UniProt P25440)
Description: as §1

BRD7 = target: T4, BRD7 (Homo sapiens, UniProt Q9NPI1)
T4 sequence (Q9NPI1 131-235 limits assumed): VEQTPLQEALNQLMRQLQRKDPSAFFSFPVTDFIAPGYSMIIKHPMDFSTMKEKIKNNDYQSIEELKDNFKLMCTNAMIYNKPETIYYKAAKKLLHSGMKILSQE
Description: as §1

BRD8(1) = BRD8(1) (Homo sapiens, UniProt Q9H0E9)
Description: as §1

PCAF = target: T5, PCAF (Homo sapiens, UniProt Q92831)
T5 sequence (Q92831 723-827 limits assumed): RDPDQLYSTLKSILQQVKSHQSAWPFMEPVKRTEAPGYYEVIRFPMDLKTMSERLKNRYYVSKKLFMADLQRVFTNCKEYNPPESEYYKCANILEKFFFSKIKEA
Description: as §1

[1] = read-out: KD (BROMOscan), sheet prints no unit (nM)
[2] = KD (BROMOscan), sheet prints no unit (nM)
[3] = KD, BROMOscan Gene Symbol ATAD2B
[4] = KD, BROMOscan Gene Symbol BRD8(1)

BRD8(1), sequence (Q9H0E9 706-811 limits assumed): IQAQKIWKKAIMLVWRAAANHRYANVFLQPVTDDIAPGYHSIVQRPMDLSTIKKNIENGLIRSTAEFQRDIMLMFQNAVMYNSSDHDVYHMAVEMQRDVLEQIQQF
BRD2(1,2), sequence (P25440 71-455 limits assumed): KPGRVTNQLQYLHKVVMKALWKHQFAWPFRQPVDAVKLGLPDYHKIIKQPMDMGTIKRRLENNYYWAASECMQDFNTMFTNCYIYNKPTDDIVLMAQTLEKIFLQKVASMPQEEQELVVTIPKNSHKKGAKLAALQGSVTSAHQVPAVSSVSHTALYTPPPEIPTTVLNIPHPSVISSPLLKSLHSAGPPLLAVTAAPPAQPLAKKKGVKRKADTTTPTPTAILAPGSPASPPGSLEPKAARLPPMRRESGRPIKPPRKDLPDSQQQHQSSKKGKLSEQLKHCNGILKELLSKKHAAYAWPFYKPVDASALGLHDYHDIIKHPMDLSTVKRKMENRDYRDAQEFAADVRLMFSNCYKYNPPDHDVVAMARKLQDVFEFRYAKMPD

SMILES: Cc1noc(C)c1-c1ccc2c(c1)nc(CCc1ccccc1)n2CCN1CCOCC1 [CBP30-298]
Kd (ATAD2B; BROMOscan Gene Symbol ATAD2B): > 50000 nM
Kd (ATAD2B; [1]): > 30000 nM
Kd (BAZ2A; BROMOscan Gene Symbol BAZ2A): 55 µM
Kd (BRPF3; BROMOscan Gene Symbol BRPF3): > 50000 nM
Kd (BRPF3; [1]): > 30000 nM

SMILES: CCC(=O)N1CCOc2c(cc(-c3ccc(OC)c(OC)c3)cc2OCC2CCCN(C)C2)C1 (centres unmarked) [I-CBP112]
Kd (ATAD2B; [3]): 71000 nM
Kd (BAZ2A): 70 µM
Kd (BRD2(1,2)): 6.9 µM
Kd (BRD7; KD, BROMOscan Gene Symbol BRD7): 7600 nM
Kd (BRD8(1); [2]): > 30000 nM
Kd (BRD8(1); [4]): > 100000 nM
Kd (BRPF3; KD, BRPF3): 95000 nM
Kd (PCAF; KD, PCAF): 77000 nM

SMILES: Cc1cc(=O)n(C)c2cc(N3C(=O)CC[C@H](NS(=O)(=O)CC(C)C)[C@H]3c3ccc(Cl)cc3)ccc12 [LP-99]
Kd (ATAD2B; ATAD2B): > 50000 nM
Kd (BAZ2A; BAZ2A): > 50 µM
Kd (BRD2(1,2); BROMOscan, BRD2(1,2)): 35 µM
Kd (BRD8(1); BROMOscan, BRD8(1)): > 50000 nM
Kd (BRPF3; BROMOscan, BRPF3): > 50000 nM
Kd (PCAF; BROMOscan, PCAF): > 50000 nM

SMILES: COc1cc(C#N)ccc1S(=O)(=O)Nc1ccc2c(c1)cc(C)c(=O)n2C [NI 57]
Kd (ATAD2B; ATAD2B): > 50000 nM
Kd (BAZ2A; BAZ2A): > 50 µM
Kd (BRD2(1,2); BRD2(1,2)): 12 µM
Kd (BRD8(1); BRD8(1)): > 50000 nM
Kd (PCAF; PCAF): 4200 nM

SMILES: CCCS(=O)(=O)c1nc(NC2CC2)cc(-c2ccc3c(ccn3C3CC(C)(C)NC(C)(C)C3)c2)n1 [NVS-CECR2-1]
Kd (ATAD2B): > 30000 nM
Kd (BAZ2A): > 30 µM
Kd (BRD2(1,2)): 16 µM
Kd (BRD7): 6800 nM
Kd (BRD8(1)): > 30000 nM
Kd (BRPF3): > 30000 nM
Kd (PCAF): > 30000 nM

SMILES: O=C(C=CN1[C@H]2CC[C@@H]1c1ncnc(NC3CC3)c1C2)c1ccccc1O [PFI-3 D1]
Kd (ATAD2B; BROMOscan, ATAD2B): > 30000 nM
Kd (BAZ2A; BROMOscan, BAZ2A): > 30 µM
Kd (BRD2(1,2); BROMOscan, BRD2(1,2)): > 30 µM
Kd (BRD7; BROMOscan, BRD7): > 30000 nM
Kd (BRD8(1); BROMOscan, BRD8(1)): > 30000 nM
Kd (BRPF3; BROMOscan, BRPF3): > 30000 nM
Kd (PCAF; BROMOscan, PCAF): > 30000 nM

SMILES: COc1ccc(CCc2nc3cc(-c4c(C)noc4C)ccc3n2C[C@H](C)N2CCOCC2)cc1Cl [SGC-CBP30]
Kd (ATAD2B; [2]): > 30000 nM
Kd (ATAD2B; KD, BROMOscan, ATAD2B): > 100000 nM
Kd (BAZ2A): 69 µM
Kd (BRD2(1,2)): 0.65 µM
Kd (BRD7; KD, BROMOscan, BRD7): 39000 nM
Kd (BRD8(1); [2]): > 30000 nM
Kd (BRD8(1); KD, BROMOscan, BRD8(1)): > 100000 nM
Kd (BRPF3; [2]): > 30000 nM
Kd (BRPF3; KD, BROMOscan, BRPF3): > 100000 nM
Kd (PCAF; [2]): > 30000 nM
Kd (PCAF; KD, BROMOscan, PCAF): > 100000 nM

SMILES: O=C(O)c1ccccc1O [Salicylic Acid]
Kd (ATAD2B; KD, ATAD2B): > 1.4e+07 nM
Kd (BAZ2A): > 14000 µM
Kd (BRD2(1,2)): 7300 µM
Kd (BRD7; KD, BRD7): > 1.4e+07 nM
Kd (BRD8(1); KD, BRD8(1)): > 1.4e+07 nM
Kd (BRPF3; KD, BRPF3): > 1.4e+07 nM
Kd (PCAF; KD, PCAF): > 1.4e+07 nM

Further lines, results first:

Kd (ATAD2B; [2]): > 30000 nM
Kd (ATAD2B; [3]): > 100000 nM
Kd (BRD2(1,2)): 19 µM
Kd (BRD7; KD, BROMOscan Gene Symbol BRD7): 22000 nM
Kd (BRD8(1); [2]): > 30000 nM
Kd (BRD8(1); [4]): > 100000 nM
Kd (BRPF3; KD, BROMOscan Gene Symbol BRPF3): 15000 nM
Kd (PCAF; [2]): > 30000 nM
Kd (PCAF; KD, BROMOscan Gene Symbol PCAF): > 100000 nM
SMILES: CCCOc1ccn2c(C(C)=O)cc(-c3ccccc3S(C)(=O)=O)c2c1 [GSK2801]

Kd (ATAD2B; ATAD2B): 29000 nM
Kd (BAZ2A; BAZ2A): 13 µM
Kd (BRD2(1,2); BRD2(1,2)): 5.6 µM
Kd (BRD7; BRD7): 1000 nM
Kd (BRD8(1); BRD8(1)): > 50000 nM
Kd (BRD8(1); [1]): > 30000 nM
Kd (PCAF; PCAF): 12000 nM
SMILES: COc1cc2c(cc1NS(=O)(=O)c1ccc(Br)cc1C)n(C)c(=O)n2C [OF-1]

Kd (ATAD2B; [2]): > 30000 nM
Kd (ATAD2B; KD, ATAD2B): > 100000 nM
Kd (BAZ2A): > 100 µM
Kd (BRD7; [2]): > 30000 nM
Kd (BRD7; KD, BRD7): > 100000 nM
Kd (BRD8(1); [2]): > 30000 nM
Kd (BRD8(1); KD, BRD8(1)): > 100000 nM
Kd (BRPF3; [2]): > 30000 nM
Kd (BRPF3; KD, BRPF3): > 100000 nM
Kd (PCAF; [2]): > 30000 nM
Kd (PCAF; KD, PCAF): > 100000 nM
SMILES: O=C(C=CN1CC2CC1CN2c1ccccn1)c1ccccc1O (centres unmarked) [PFI-3]
